Results from US6716851B2, “Substituted 2-aryl-4-arylaminopyrimidines and analogs as activators or caspases and inducers of apoptosis and the use thereof” (Cytovia, Inc., priority 2000, dated 2004).

Key:
ZR-75-1 cells = experiment: Caspase cascade activation (N-(Ac-DEVD)-N'-ethoxycarbonyl-R110 fluorogenic substrate) in ZR-75-1 cells; type: cell-based, Human; details: ZR-75-1, 48 h incubation; for EC50: Homo sapiens, caspase activation potency; for ZR Ratio 48 hr: caspase activity: ratio of net RFU of test compound to control
Experimental: (§1) Human breast cancer cell lines T-47D and ZR-75-1 were grown according to media component mixtures designated by American Type Culture Collection +10% FCS (Invitrogen Corporation, Life Technologies division), in a 5% CO2-95% humidity incubator at 37° C. T-47D and ZR-75-1 cells were maintained at a cell density between 50 and 80% confluency at a cell density of 0.1 to 0.6×10^6 cells/ml. Cells were harvested at 600× g and resuspended at 0.65×10^6 cells/ml into appropriate media +10% FCS. An aliquot of […] of cells was added to a well of a […] microtiter plate containing 2.5 μl of a 10% DMSO in RPMI-1640 media solution containing 0.16 to 100 μM of 4-(3-methoxyanilino)-2-(2-pyridinyl)-6-(trifluoromethyl)pyrimidine or other test compound (0.016 to 10 μM final). An aliquot of 22.5 μl of cells was added to a well of a 384-well microtiter plate containing 2.5 μl of a 10% DMSO in RPMI-1640 media solution without test compound as the control sample. The samples were mixed by agitation and then incubated at 37° C. for 48 h in a 5% CO2-95% humidity incubator. After incubation, the samples were removed from the incubator and 25 μl of a solution containing 14 μM of N-(Ac-DEVD)-N′-ethoxycarbonyl-R110 fluorogenic substrate (Cytovia, Inc.; WO99/18856), 20% sucrose (Sigma), 20 mM DTT (Sigma), 200 mM NaCl (Sigma), 40 mM Na PIPES buffer pH 7.2 (Sigma), and 500 μg/ml lysolecithin (Calbiochem) was added. The samples were mixed by agitation and incubated at room temperature. Using a fluorescent plate reader (Model SpectraMax Gemini, Molecular Devices), an initial reading (T=0) was made approximately 1-2 min after addition of the substrate solution, employing excitation at 485 nm and emission at 530 nm, to determine the background fluorescence of the control sample. After the 3 h incubation, the samples were read for fluorescence as above (T=3 h).
(§2) The Relative Fluorescence Unit values (RFU) were used to calculate the sample readings as follows:
(§3) RFU(T=3h)−Control RFU(T=0)=Net RFU(T=3h)
(§4) The activity of caspase cascade activation was determined by the ratio of the net RFU value for 4-(3-methoxyanilino)-2-(2-pyridinyl)-6-(trifluoromethyl)pyrimidine or other test compound to that of control samples. The EC50 (nM) was determined by a sigmoidal dose-response calculation (Prism 2.0, GraphPad Software Inc.).

T-47D cells = experiment: Caspase cascade activation (N-(Ac-DEVD)-N'-ethoxycarbonyl-R110 fluorogenic substrate) in T-47D cells; type: cell-based, Human; details: 48 h incubation; for EC50: Homo sapiens, T47D, caspase activation potency, read-out: T47 EC50; for T47 Ratio 48 hr: caspase activity: ratio of net RFU of test compound to control
Experimental: as §1, §2, §3, §4

| Structure (SMILES) | EC50 (ZR-75-1 cells) | ZR Ratio 48 hr (ZR-75-1 cells) | EC50 (T-47D cells) | T47 Ratio 48 hr (T-47D cells) |
| --- | --- | --- | --- | --- |
| COc1cccc(Nc2nc(-c3ccc(C(F)(F)F)cn3)nc(C)c2Cl)c1 [Example 15, 4-(3-Methoxyanilino)-5-chloro-6-methyl-2-[5-(trifluoromethyl)-2-pyridinyl]pyrimidine] | > 5000 nM | 2.7 | > 5000 nM | 2.5 |
| COc1cccc(Nc2cc(C)nc(-c3ccccn3)n2)c1 [Example 16, 4-(3-Methoxyanilino)-6-methyl-2-(2-pyridinyl)pyrimidine] | 292 nM | 3.3 | 288 nM | 19.5 |
| COc1cccc(Nc2nc(-c3ccccn3)ncc2OC)c1 [Example 18, 4-(3-Methoxyanilino)-5-methoxy-2-(2-pyridinyl)pyrimidine] | 4900 nM | 7.8 | > 5000 nM | 1.9 |
| COc1cccc(Nc2cc(C(F)(F)F)nc(-c3cccnc3)n2)c1 [Example 19, 4-(3-Methoxyanilino)-2-(3-pyridinyl)-6-(trifluoromethyl)pyrimidine] | 214 nM | 8.9 | 471 nM | 16.7 |
| COCc1cc(Nc2cccc(OC)c2)nc(-c2cccc(C)c2)n1 [Example 20, 4-(3-Methoxyanilino)-6-(methoxymethyl)-2-(3-methylphenyl)pyrimidine] | > 5000 nM | 1.1 | > 5000 nM | 1.6 |
| COc1ccc(OC)c(Nc2cc(C)nc(-c3ccccn3)n2)c1 [Example 21, 4-(2,5-Dimethoxyanilino)-6-methyl-2-(2-pyridinyl)pyrimidine] | < 156 nM | 12.0 | < 156 nM | 15.5 |
| COc1cccc(Nc2cc(C)nc(-c3ccccn3)n2)c1OC [Example 22, 4-(2,3-Dimethoxyanilino)-6-methyl-2-(2-pyridinyl)pyrimidine] | 6050 nM | 3.5 | > 5000 nM | 1.9 |
| COc1ccc(OC)c(Nc2cc(C(F)(F)F)nc(-c3cccnc3)n2)c1 [Example 38, 4-(2,5-Dimethoxyanilino)-2-(3-pyridinyl)-6-(trifluoromethyl)pyrimidine] | 69 nM | 12.4 | 19 nM | 8.8 |
| COc1cccc(Nc2cc(C(F)(F)F)nc(-c3ccncc3)n2)c1 [Example 41, 4-(3-Methoxyanilino)-2-(4-pyridinyl)-6-(trifluoromethyl)pyrimidine] | > 5000 nM | 1.6 | 521 nM | 7.5 |
| COc1ccc(OC)c(Nc2cc(C(F)(F)F)nc(-c3ccncc3)n2)c1 [Example 42, 4-(2,5-Dimethoxyanilino)-2-(4-pyridinyl)-6-(trifluoromethyl)pyrimidine] | 145 nM | 2.5 | 43 nM | 5.8 |
| COCc1cc(Nc2cccc(OC)c2)nc(-c2csc(C)n2)n1 [Example 44, 4-(3-Methoxyanilino)-6-(methoxymethyl)-2-(2-methyl-1-3-thiazol-4-yl)pyrimidine] | > 5000 nM | 1.9 | > 5000 nM | 1.6 |
| COCc1cc(Nc2cc(OC)ccc2OC)nc(-c2csc(C)n2)n1 [Example 45, 4-(2,5-Dimethoxyanilino)-6-(methoxymethyl)-2-(2-methyl-1-3-thiazol-4-yl)pyrimidine] | 387 nM | 17.3 | 329 nM | 21.6 |
| COc1cccc(Nc2cc(N3CCOCC3)nc(-c3ccccc3)n2)c1 [Example 46, 6-Morpholino-4-(3-methoxyanilino)-2-phenyl-pyrimidine] | > 5000 nM | 1.4 | > 5000 nM | 1.5 |
| COc1ccc(Cl)c(Nc2cc(C(F)(F)F)nc(-c3cccnc3)n2)c1 [Example 50, 4-(2-Chloro-5-methoxyanilino)-2-(3-pyridinyl)-6-(trifluoromethyl)pyrimidine] | 322 nM | 5.3 | 172 nM | 10 |
| COc1ccc(C)c(Nc2cc(C(F)(F)F)nc(-c3cccnc3)n2)c1 [Example 51, 4-(5-Methoxy-2-methylanilino)-2-(3-pyridinyl)-6-(trifluoromethyl)pyrimidine] | 56 nM | 5.9 | 29 nM | 11 |
| COc1ccc(Cl)c(Nc2cc(C)nc(-c3ccccn3)n2)c1 [Example 52, 4-(2-Chloro-5-methoxyanilino)-6-methyl-2-(2-pyridinyl)pyrimidine] | 98 nM | 7.2 | 108 nM | 20.9 |
| COc1ccc(C)c(Nc2cc(C)nc(-c3ccccn3)n2)c1 [Example 53, 4-(5-Methoxy-2-methylanilino)-6-methyl-2-(2-pyridinyl)pyrimidine] | 599 nM | 6.6 | 115 nM | 20.4 |
| COc1ccc(Cl)c(Nc2cc(C(F)(F)F)nc(-c3ccncc3)n2)c1 [Example 54, 4-(2-Chloro-5-methoxyanilino)-2-(4-pyridinyl)-6-(trifluoromethyl)pyrimidine] | 101 nM | 5.9 | 99 nM | 10.5 |
| COc1ccc(C)c(Nc2cc(C(F)(F)F)nc(-c3ccncc3)n2)c1 [Example 55, 4-(5-Methoxy-2-methylanilino)-2-(4-pyridinyl)-6-(trifluoromethyl)pyrimidine] | 18 nM | 7.1 | 21 nM | 8.4 |
| Cn1cc(Br)c(-c2cccc(Nc3cc(C(F)(F)F)nc(-c4cccnc4)n3)c2)n1 [Example 58, 4-[3-(4-Bromo-1-methyl-1H-pyrazol-3-yl)anilino]-2-(3-pyridinyl)-6-(trifluoromethyl)pyrimidine] | > 5000 nM | 1.1 | > 5000 nM | 1.5 |
| Cc1nccc(-c2cccc(Nc3cc(C(F)(F)F)nc(-c4cccnc4)n3)c2)n1 [Example 59, 4-[3-(2-Methyl-pyrimidin-4-yl)anilino]-2-(3-pyridinyl)-6-(trifluoromethyl)pyrimidine] | > 5000 nM | 1.1 | > 5000 nM | 1.6 |
| FC(F)(F)c1cc(Nc2cccc(-c3ccccc3)c2)nc(-c2cccnc2)n1 [Example 60, 4-(3-Phenylanilino)-2-(3-pyridinyl)-6-(trifluoromethyl)pyrimidine] | > 5000 nM | 1.4 | > 5000 nM | 1.8 |
| O=[N+]([O-])c1cccc(-c2cccc(Nc3cc(C(F)(F)F)nc(-c4cccnc4)n3)c2)c1 [Example 61, 4-[3-(3-Nitrophenyl)anilino]-2-(3-pyridinyl)-6-(trifluoromethyl)pyrimidine] | > 5000 nM | 1.2 | > 5000 nM | 1.8 |
| COc1ccc(OC)c(Nc2cc(C(F)(F)F)nc(-c3cnccn3)n2)c1 [Example 76, 4-(2,5-Dimethoxyanilino)-2-(2-pyrazinyl)-6-(trifluoromethyl)pyrimidine] |  |  | < 150 nM | 8.5 |
| COc1ccc(Cl)c(Nc2cc(C(F)(F)F)nc(-c3cnccn3)n2)c1 [Example 82, 4-(2-Chloro-5-methoxyanilino)-2-(2-pyrazinyl)-6-(trifluoromethyl)pyrimidine] |  |  | 254 nM | 15.3 |
| Oc1ccc(Cl)c(Nc2cc(C(F)(F)F)nc(-c3cnccn3)n2)c1 [Example 194, 4-(2-Chloro-5-hydroxyanilino)-2-(2-pyrazinyl)-6-trifluoromethylpyrimidine] |  |  | 107 nM | 11.7 |
| COc1cc(Nc2cc(C(F)(F)F)nc(-c3ccccn3)n2)cc(OC)c1 [Example 195, 4-(3,5-Dimethoxyanilino)-2-(2-pyridinyl)-6-trifluoromethylpyrimidine] |  |  | 20 nM | 8.4 |
| Cc1ccc(C)c(Nc2cc(C(F)(F)F)nc(-c3cnccn3)n2)c1 [Example 196, 4-(2,5-Dimethylanilino)-2-(2-pyrazinyl)-6-trifluoromethylpyrimidine] |  |  | 527 nM | 11.3 |
